Test results from ChEMBL document CHEMBL3877252, “Fluorescein hydrazones: A series of novel non-intercalative topoisomerase IIα catalytic inhibitors induce G1 arrest and apoptosis in breast and colon cancer cells” (Eur J Med Chem, 2017).
Activity calls are given as the source filed them. The rule behind the calls is not given here.

What was measured:
[1] = Cell cycle arrest in human HCT15 cells assessed as accumulation at G1 phase at 10 uM after 5 hrs by DAPI staining-based cell analyzer (reference value: 61%); type: functional; settings: HCT-15
[2] = Cell cycle arrest in human HCT15 cells assessed as accumulation at G1 phase at 3 uM after 20 hrs by DAPI staining-based cell analyzer (reference value: 40%); type: functional; settings: HCT-15
[3] = Antiproliferative activity against human HCT15 cells measured after 72 hrs by CCK8 assay; type: functional, cell-based; settings: HCT-15, 72 h
[4] = Cell cycle arrest in human HCT15 cells assessed as accumulation at S phase at 3 uM after 20 hrs by DAPI staining-based cell analyzer (reference value: 34%); type: functional; settings: HCT-15
[5] = Cell cycle arrest in human HCT15 cells assessed as increase in p27kip1 level at 10 uM; type: functional, cell-based; settings: HCT-15, TDE = time-dependent effect
[6] = Cell cycle arrest in human HCT15 cells assessed as accumulation at S phase at 10 uM after 15 hrs by DAPI staining-based cell analyzer (reference value: 10%); type: functional; settings: HCT-15
[7] = biological target: DNA topoisomerase 2-alpha (Homo sapiens) (UniProt P11388); experiment: Inhibition of topoisomerase-2 alpha catalytic activity in human HCT15 cells assessed as appearance of free protein band at 50 uM measured after 2 hrs by Western blot analysis; type: cell-based; settings: HCT-15
Chain of DNA topoisomerase 2-alpha (Homo sapiens) (P11388 whole entry): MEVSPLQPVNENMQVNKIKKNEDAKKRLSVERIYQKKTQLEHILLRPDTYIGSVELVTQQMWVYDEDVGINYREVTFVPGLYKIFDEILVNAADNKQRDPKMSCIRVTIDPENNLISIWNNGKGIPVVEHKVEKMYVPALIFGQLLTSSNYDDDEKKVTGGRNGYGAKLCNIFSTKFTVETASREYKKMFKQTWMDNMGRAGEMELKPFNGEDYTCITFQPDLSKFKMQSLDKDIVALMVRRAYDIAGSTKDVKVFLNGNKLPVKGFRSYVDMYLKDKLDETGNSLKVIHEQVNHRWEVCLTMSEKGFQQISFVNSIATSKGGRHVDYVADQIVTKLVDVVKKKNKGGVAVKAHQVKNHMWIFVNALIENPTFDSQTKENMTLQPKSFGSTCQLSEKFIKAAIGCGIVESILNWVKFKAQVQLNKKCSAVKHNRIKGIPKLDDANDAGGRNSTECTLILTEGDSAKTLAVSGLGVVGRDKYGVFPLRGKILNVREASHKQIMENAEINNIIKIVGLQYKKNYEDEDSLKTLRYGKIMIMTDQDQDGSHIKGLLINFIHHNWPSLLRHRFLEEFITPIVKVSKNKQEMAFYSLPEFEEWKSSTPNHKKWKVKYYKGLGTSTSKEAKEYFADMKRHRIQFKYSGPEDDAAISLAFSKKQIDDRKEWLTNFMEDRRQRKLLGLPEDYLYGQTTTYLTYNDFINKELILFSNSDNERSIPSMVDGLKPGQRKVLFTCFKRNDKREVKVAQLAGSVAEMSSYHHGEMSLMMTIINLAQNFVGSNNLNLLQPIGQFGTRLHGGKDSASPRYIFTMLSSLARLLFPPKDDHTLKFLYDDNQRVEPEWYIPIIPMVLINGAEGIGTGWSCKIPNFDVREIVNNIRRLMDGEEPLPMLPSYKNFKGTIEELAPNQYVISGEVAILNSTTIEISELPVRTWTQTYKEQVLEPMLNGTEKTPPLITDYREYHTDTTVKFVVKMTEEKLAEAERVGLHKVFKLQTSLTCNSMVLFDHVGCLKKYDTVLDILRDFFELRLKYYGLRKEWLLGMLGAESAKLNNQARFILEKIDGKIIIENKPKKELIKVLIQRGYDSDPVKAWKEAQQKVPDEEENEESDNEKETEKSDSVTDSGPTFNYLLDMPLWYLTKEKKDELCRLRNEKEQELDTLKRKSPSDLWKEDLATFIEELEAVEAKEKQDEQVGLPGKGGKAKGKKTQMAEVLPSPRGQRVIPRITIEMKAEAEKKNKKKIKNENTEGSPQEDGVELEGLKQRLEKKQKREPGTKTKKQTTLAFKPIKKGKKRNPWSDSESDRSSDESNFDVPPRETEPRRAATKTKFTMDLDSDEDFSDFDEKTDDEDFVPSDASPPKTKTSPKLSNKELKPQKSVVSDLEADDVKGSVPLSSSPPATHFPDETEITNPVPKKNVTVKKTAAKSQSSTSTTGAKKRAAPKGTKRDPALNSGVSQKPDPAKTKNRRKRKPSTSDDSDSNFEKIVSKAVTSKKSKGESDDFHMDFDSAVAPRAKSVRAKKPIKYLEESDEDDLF

[8] = biological target: T1, DNA topoisomerase 1 (Homo sapiens) (UniProt P11387); experiment: Inhibition of human topoisomerase-1 assessed as inhibition of relaxation of supercoiled pBR322 plasmid DNA at 100 uM measured after 1 hr by ethidium bromide staining based agarose gel electrophoresis relative to control
T1 sequence (whole entry): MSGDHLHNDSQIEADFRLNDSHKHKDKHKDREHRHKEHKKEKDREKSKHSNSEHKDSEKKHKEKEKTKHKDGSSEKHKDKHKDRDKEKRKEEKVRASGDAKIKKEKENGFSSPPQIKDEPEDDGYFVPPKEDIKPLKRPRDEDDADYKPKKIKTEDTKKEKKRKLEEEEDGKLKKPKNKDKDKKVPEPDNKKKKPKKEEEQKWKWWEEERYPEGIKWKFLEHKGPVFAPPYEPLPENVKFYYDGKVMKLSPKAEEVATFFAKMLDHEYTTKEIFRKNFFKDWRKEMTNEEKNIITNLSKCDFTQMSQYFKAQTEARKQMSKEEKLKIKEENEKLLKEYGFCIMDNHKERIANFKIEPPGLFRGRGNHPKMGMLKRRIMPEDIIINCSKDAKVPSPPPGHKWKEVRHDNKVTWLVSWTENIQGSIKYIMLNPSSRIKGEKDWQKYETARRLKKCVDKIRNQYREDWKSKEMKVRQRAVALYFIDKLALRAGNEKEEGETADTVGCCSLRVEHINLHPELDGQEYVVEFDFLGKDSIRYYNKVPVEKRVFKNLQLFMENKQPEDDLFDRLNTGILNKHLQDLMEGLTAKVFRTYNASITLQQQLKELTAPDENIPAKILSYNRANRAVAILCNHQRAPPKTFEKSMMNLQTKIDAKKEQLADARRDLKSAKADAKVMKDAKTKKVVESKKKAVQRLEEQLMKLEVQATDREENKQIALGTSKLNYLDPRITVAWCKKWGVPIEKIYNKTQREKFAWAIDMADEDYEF

[9] = Cell cycle arrest in human HCT15 cells assessed as increase in p27kip1 level measured after 20 hrs; type: functional, cell-based; settings: HCT-15
[10] = Cell cycle arrest in human HCT15 cells assessed as decrease in cyclin D1 level at 10 uM; type: functional, cell-based; settings: HCT-15, TDE = time-dependent effect
[11] = Cell cycle arrest in human HCT15 cells assessed as decrease in cyclin D1 level measured after 20 hrs; type: functional, cell-based; settings: HCT-15
[12] = Cell cycle arrest in human HCT15 cells assessed as accumulation at G1 phase at 10 uM after 20 hrs by DAPI staining-based cell analyzer (reference value: 61%); type: functional; settings: HCT-15
[13] = Cell cycle arrest in human HCT15 cells assessed as accumulation at G1 phase at 10 uM after 15 hrs by DAPI staining-based cell analyzer (reference value: 61%); type: functional; settings: HCT-15
[14] = Cell cycle arrest in human HCT15 cells assessed as accumulation at G1 phase at 10 uM after 20 hrs by DAPI staining-based cell analyzer (reference value: 40%); type: functional; settings: HCT-15
[15] = Cell cycle arrest in human HCT15 cells assessed as accumulation at G2/M phase at 3 uM after 20 hrs by DAPI staining-based cell analyzer (reference value: 13%); type: functional; settings: HCT-15
[16] = Cell cycle arrest in human HCT15 cells assessed as accumulation at S phase at 1 uM after 20 hrs by DAPI staining-based cell analyzer (reference value: 34%); type: functional; settings: HCT-15
[17] = Cell cycle arrest in human HCT15 cells assessed as accumulation at S phase at 10 uM after 20 hrs by DAPI staining-based cell analyzer (reference value: 34%); type: functional; settings: HCT-15
[18] = biological target: T1, DNA topoisomerase 1 (Homo sapiens); experiment: Inhibition of human topoisomerase-1 assessed as inhibition of relaxation of supercoiled pBR322 plasmid DNA at 20 uM measured after 1 hr by ethidium bromide staining based agarose gel electrophoresis relative to control
[19] = Cell cycle arrest in human HCT15 cells assessed as accumulation at G2/M phase at 10 uM after 20 hrs by DAPI staining-based cell analyzer (reference value: 13%); type: functional; settings: HCT-15
[20] = Cell cycle arrest in human HCT15 cells assessed as accumulation at G2/M phase at 1 uM after 20 hrs by DAPI staining-based cell analyzer (reference value: 13%); type: functional; settings: HCT-15
[21] = Antiproliferative activity against human DU145 cells measured after 72 hrs by CCK8 assay; type: functional, cell-based; settings: DU-145, 72 h
[22] = Antiproliferative activity against human T47D cells measured after 72 hrs by CCK8 assay; type: functional, cell-based
[23] = biological target: DNA topoisomerase 2-alpha (Homo sapiens) (UniProt P11388); experiment: Poison activity at topoisomerase-2 alpha in human HCT15 cells assessed as DNA damage by measuring DNA tail length at 10 uM measured after 24 hrs by alkaline comet assay; type: cell-based; settings: HCT-15
[24] = Antiproliferative activity against human MCF7 cells measured after 72 hrs by CCK8 assay; type: functional, cell-based; settings: MCF7, 72 h
HCT-15 [25] = experiment: Induction of apoptosis in human HCT15 cells assessed as increase in bax level measured after 24 hrs by Western blot analysis; type: functional, cell-based
[26] = Cell cycle arrest in human HCT15 cells assessed as accumulation at S phase at 10 uM after 10 hrs by DAPI staining-based cell analyzer (reference value: 10%); type: functional; settings: HCT-15
[27] = Cell cycle arrest in human HCT15 cells assessed as accumulation at G2/M phase at 10 uM after 15 hrs by DAPI staining-based cell analyzer (reference value: 13%); type: functional; settings: HCT-15
HCT-15 [28] = experiment: Induction of apoptosis in human HCT15 cells assessed as decrease in bcl-2 level measured after 24 hrs by Western blot analysis; type: functional, cell-based
[29] = Cell cycle arrest in human HCT15 cells assessed as accumulation at G1 phase at 10 uM after 10 hrs by DAPI staining-based cell analyzer (reference value: 61%); type: functional; settings: HCT-15
[30] = Cell cycle arrest in human HCT15 cells assessed as accumulation at G2/M phase at 10 uM after 10 hrs by DAPI staining-based cell analyzer (reference value: 13%); type: functional; settings: HCT-15
[31] = Cell cycle arrest in human HCT15 cells assessed as accumulation at S phase at 10 uM after 5 hrs by DAPI staining-based cell analyzer (reference value: 10%); type: functional; settings: HCT-15
HCT-15 [32] = experiment: Induction of apoptosis in human HCT15 cells assessed as increase in cleaved PARP level measured after 24 hrs by Western blot analysis; type: functional, cell-based
[33] = biological target: DNA topoisomerase 2-alpha (Homo sapiens) (UniProt P11388); experiment: Inhibition of human topoisomerase-2 alpha assessed as inhibition of relaxation of supercoiled pBR322 plasmid DNA at 100 uM measured after 1 hr by ethidium bromide staining based agarose gel electrophoresis relative to control
[34] = biological target: DNA topoisomerase 2-alpha (Homo sapiens) (UniProt P11388); experiment: Inhibition of human topoisomerase-2 alpha assessed as inhibition of relaxation of supercoiled pBR322 plasmid DNA at 20 uM measured after 1 hr by ethidium bromide staining based agarose gel electrophoresis relative to control
[35] = Cell cycle arrest in human HCT15 cells assessed as accumulation at S phase at 10 uM after 20 hrs by DAPI staining-based cell analyzer (reference value: 10%); type: functional; settings: HCT-15
[36] = biological target: DNA topoisomerase 2-alpha (Homo sapiens) (UniProt P11388); experiment: Poison activity at topoisomerase-2 alpha in human HCT15 cells assessed as DNA damage by measuring DNA tail length at 5 uM measured after 24 hrs by alkaline comet assay; type: cell-based; settings: HCT-15
[37] = Cell cycle arrest in human HCT15 cells assessed as accumulation at G2/M phase at 10 uM after 5 hrs by DAPI staining-based cell analyzer (reference value: 13%); type: functional; settings: HCT-15
[38] = Cell cycle arrest in human HCT15 cells assessed as accumulation at G1 phase at 1 uM after 20 hrs by DAPI staining-based cell analyzer (reference value: 40%); type: functional; settings: HCT-15
[39] = Cell cycle arrest in human HCT15 cells assessed as accumulation at G1 phase at 10 uM by DAPI staining based cell analyzer; type: functional; settings: HCT-15, TDE = time-dependent effect

## CCOc1ccc2c(c1)Oc1cc(O)ccc1C21c2ccccc2C(=O)N1/N=C/c1ccccc1[N+](=O)[O-] (centres undefined)
[1]
  Activity: 64%
[2]
  Activity: 48%
[3]
  IC50: 2400 nM
[4]
  Activity: 24%
[5]
  Activity: Tde
[6]
  Activity: 8%
[7]
  inhibition: Active
[8]
  inhibition: 35.6%
[9]
  Activity: Dose-dependent effect
[10]
  Activity: Tde
[11]
  Activity: Dose-dependent effect
[12]
  Activity: 70%
[13]
  Activity: 68%
[14]
  Activity: 55%
[15]
  Activity: 11%
[16]
  Activity: 28%
[17]
  Activity: 20%
[18]
  inhibition: 14.8%
[19]
  Activity: 11 to 12%
[20]
  Activity: 14%
[21]
  IC50: 1430 nM
[22]
  IC50: > 50000 nM
[23]
  Activity: 8.29 pixel
[24]
  IC50: 11400 nM
HCT-15 [25]
  Activity: Dose-dependent effect
[26]
  Activity: 8%
[27]
  Activity: 11%
HCT-15 [28]
  Activity: Dose-dependent effect
[29]
  Activity: 67%
[30]
  Activity: 12%
[31]
  Activity: 8%
HCT-15 [32]
  Activity: Dose-dependent effect
[33]
  inhibition: 62.4%
[34]
  inhibition: 52.7%
[35]
  Activity: 7%
[36]
  Activity: 7.72 pixel
[37]
  Activity: 11%
[38]
  Activity: 45%
[39]
  Activity: Tde
